The test deals with PLC biosensor. Nature of the test: microbe, parasite or virus in culture. The format is cell-based, E. coli BL21. Particulars: for EC10: BL21; for Emax: BL21, read-out: Induction; for maximal fold induction: BL21, read-out: Signal range (max/min), substrate screening, PLC biosensor, E. coli BL21; for EC50 / EC90 / Induction / Sensing range (predicted) / Change in potency relative to sinapic acid (4) / Activity against the FerC biosensor: PLC biosensor; for EC50 / EC90 / Change in potency relative to sinapic acid (4) / Activity against the FerC biosensor: E. coli BL21; for Induction: E. coli BL21, 0.32–1000 μM; for Sensing range (predicted): E. coli BL21, text; for Output signal / efficacy: relative to the PLC biosensor response curve with ferulic acid. As for the experimental part: Cells were centrifuged, washed and re-suspended with PBS buffer. The expression output was then analyzed by monitoring the fluorescence normalised to cell density (RFU/OD600) in a multimode plate reader (Methods, ESI ^†).
The sequences containing the PLC, PPC and PferB promoters, a RBS, and a Hexa-Histidine tag, flanked by SphI/NdeI were synthetized (GeneART, ThermoFisher). The sequences were enzyme restricted with SphI/NdeI and cloned in pET44eGFP,2 upstream to the eGFP gene, replacing the T7 promoter region generating respectively, the pET44PLCeGFP, pET44PPCeGFP and pET44PferBeGFP vectors.
The FerCA DNA sequence containing the ferA and ferC genes, individually flanked by a PLacI promoter and an rrn_B1 terminator, was synthetized by GeneARTTM (ThermoFisher).
The construct was cloned in a p15 plasmid flanked by NaeI/KasI restriction sites generating […]
the p15FerCA vector. […]
Biosensors Performance and Screening Methods
Reporter controls and the biosensor systems PLC, PPC and PferB were respectively generated by transformation of pET44PLCeGFP, pET44PPCeGFP and pET44PFerBeGFP vectors alone or with p15FerCA in BL21 and DH10B chemically competent E. coli cells. A single colony of each system was grown in LB media supplemented with antibiotics at 37 °C with shaking at 180rpm for 16 hours. Cultures were diluted (1:100) in fresh LB media with appropriate antibiotics, re-incubated at 37 °C with shaking until OD ~0.6 and transferred (450 μL) to multi- […]
μM and 1000 μM. Induction plates were incubated at 37 °C, with shaking at 1000 RPM (Stuart microtitre plate shaker incubator) for 3 hours. Cells were harvested by centrifugation, washed twice and re-suspended with PBS buffer. Expression output was analyzed by monitoring the fluorescence normalised to cell density (RFU/OD) in a multimode plate reader. […]
Compounds for screening were selected using cinnamic acid as a reference structure. The 58 selected compounds were tested with the PLC biosensor in E. coli BL21 cells. The substrate screening assays were performed using concentrations ranging from 0.32 μM to 1000 μM, as described for Ferulic acid. […]
Data Processing and Curve Fitting
Biosensor signal output (eGFP expression) was measured as Relative Fluorescence Units (RFU) and normalised to cell density (OD600). The background auto-fluorescence of E. coli was subtracted from RFU/OD and was normalised (%) to the pLC biosensor response curve to ferulic acid for each experiment. The normalised data was plotted and fitted with a dose-response curve using the Levenberg Marquardt logistic growth/sigmoidal algorithm, using the Origin 2015 (OriginLab, Northampton MA USA) program. The biomass screening data was […]

The mark [1] stands for this setting: Escherichia coli, BL21, substrate screening.

What is called EC10 is the point of the concentration-response curve where the effect stands at 10%. The EC50 is the concentration needed to bring the measured effect to its halfway point. A low value points to an effect from little substance. The EC90 is the point of the concentration-response curve where the effect stands at 90%. Low values mean greater potency, high ones weaker potency. With `O=C(O)C=Cc1ccc(O)cc1` [compound 2, p-Coumaric acid], for the setting “Escherichia coli”, the EC10 came out at 3.9 µM, the Emax was above 70% and the maximal fold induction is 25. Under setting [1], this molecule yielded an EC50 of 26.1 ± 3.8 µM and an EC90 of 174 µM. Moreover, the Induction entry (substrate screening) was “H (high output signals, and hence good efficacy (>70%))”.

`Nc1ccc(C=CC(=O)O)cc1` [compound 3, 3-(4-Aminophenyl)-2-propenoic acid]: under “Escherichia coli”, the 10% effect level (EC10) was put at 12 µM, the Emax is above 70% and the maximal fold induction turned out to be 28.1. Moreover, under setting [1], the EC50 came out at 110 ± 25.7 µM and the EC90 amounted to 1010 µM. Further, the Induction entry (substrate screening) is “H (high output signals, and hence good efficacy (>70%))”.

With `COc1cc(/C=C/C(=O)O)cc(OC)c1O` [compound 4, Sinapic acid], for the setting “Escherichia coli”, the 10% effect level (EC10) was put at 19.8 µM, the Emax was above 70% and the maximal fold induction was 15.4. Under setting [1], this molecule displayed an EC50 above 200 µM and an EC90 of 4990 µM. Also, where the note is “substrate screening”, the EC50 came to 314 ± 55.8 µM; the Induction result is “H (high output signals, and hence good efficacy (>70%))”; the “Sensing range (predicted)” value is on record as 225 fold.

Consider `COc1ccc(C=CC(=O)O)cc1O` [compound 5, 3-Hydroxy-4-methoxycinnamic acid], for which, where the note is “Escherichia coli”, the EC10 came to 36.3 µM, the Emax is above 70% and the maximal fold induction turned out to be 33.5. Under setting [1], this molecule yielded a half-maximal effective concentration (EC50) above 200 µM and an EC90 of 1510 µM. Moreover, for the setting “substrate screening”, the concentration for a half-maximal effect (EC50) amounted to 234 ± 15.4 µM; the Induction entry was “H (high output signals, and hence good efficacy (>70%))”.

For `COc1cc(C=CC(=O)O)cc(O)c1O` [compound 6, 3,4-Dihydroxy-5-methoxycinnamic acid], where the note is “Escherichia coli”, the EC10 came to 33.9 µM, the Emax was in the range of 40 to 60% and the maximal fold induction amounted to 14.8. Under setting [1], this molecule returned an EC50 of 746 ± 118 µM and a concentration for an effect of 90% (EC90) of 16400 µM. Further, for the setting “substrate screening”, the “Change in potency relative to sinapic acid (4)” value stood at 2.5 fold, the Induction result was “M (moderate signal (60–40%))” and the “Sensing range (predicted)” value is recorded as 485 fold.

As to `O=C(O)C=Cc1ccc(O)cc1O` [compound 7, 2,4-Dihydroxycinnamic acid], where the note is “Escherichia coli”, the EC10 is 131 µM, the Emax is 40 to 60% and the maximal fold induction came to 9.6. Moreover, under setting [1], the EC50 was found to be 823 ± 45.6 µM and the EC90 worked out at 5170 µM. In addition, the Induction result (substrate screening) is given as “M (moderate signal (60–40%))”.

With `COc1ccc(C=CC(=O)O)cc1OC` [compound 8, 3,4-Dimethoxycinnamic acid], under “Escherichia coli”, the concentration for an effect of 10% (EC10) came to 228 µM, the Emax was 40 to 60% and the maximal fold induction stood at 11.4. Further, under setting [1], the EC50 is 825 ± 13.2 µM and the EC90 turned out to be 2990 µM. In addition, the Induction result (substrate screening) is recorded as “M (moderate signal (60–40%))”.

For `O=C(O)/C=C/c1ccc(O)c(O)c1` [compound 9, Caffeic acid], under “Escherichia coli”, the 10% effect level (EC10) was put at 222 µM, the Emax fell in the range of 40 to 60% and the maximal fold induction was 11.2. In addition, under setting [1], the concentration giving a half-maximal response (EC50) was 1180 ± 88.5 µM and the EC90 was found to be 6250 µM. Besides, the Induction result (substrate screening) was “M (moderate signal (60–40%))”.

As for `O=C(O)C=Cc1ccc([N+](=O)[O-])cc1` [compound 10, 4-Nitrocinnamic acid], for the setting “Escherichia coli”, it took 158 µM to reach the 10% level (EC10), the Emax fell in the range of 40 to 60% and the maximal fold induction came to 9.5. Also, under setting [1], the EC50 amounted to 1560 ± 96.8 µM and the EC90 is 15500 µM. Besides, the Induction result (substrate screening) is “M (moderate signal (60–40%))”.

Turning to `COc1cc(C=CC(=O)O)cc(OC)c1OC` [compound 11, 3,4,5-Trimethoxycinnamic acid], under “Escherichia coli”, the EC10 was 378 µM, the Emax is below 40% and the maximal fold induction turned out to be 6.7. In addition, under setting [1], the EC50 is above 2000 µM and the EC90 turned out to be 14800 µM. Further, for the setting “substrate screening”, the “Change in potency relative to sinapic acid (4)” value amounted to 8 fold; the midpoint of the response, the EC50, lay at 2360 ± 265 µM; the Induction result is on record as “L (low signals (<40%))”; the “Output signal / efficacy” value is given as below 40%.

For the molecule `COc1cc(CCC(=O)O)ccc1O` [compound 12, 3-(4-Hydroxy-3-methoxyphenyl)propionic acid], where the note is “Escherichia coli”, the EC10 was determined as 702 µM, the Emax is below 40% and the maximal fold induction was 3.3. Under setting [1], this molecule came in with an EC90 of 31300 µM. For the same molecule, under “substrate screening”, the “Activity against the FerC biosensor” value is “low activity”, the Induction result was “L (low signals (<40%))” and the “Output signal / efficacy” value is below 40%.

Consider `COc1cccc(C=CC(=O)O)c1` [compound 13, 3-Methoxycinnamic acid], for which, where the note is “Escherichia coli”, the EC10 came to 816 µM, the Emax was below 40% and the maximal fold induction is 4.8. For the setting “substrate screening”, the Induction entry was “L (low signals (<40%))” and the “Output signal / efficacy” value was below 40%.

For `O=C(O)/C=C/c1ccccc1` [compound 14, cinnamic acid], the “Activity against the FerC biosensor” value (substrate screening) is “no activity”.

With `Cc1ccc(C=CC(=O)O)cc1` [compound 29, 4-methylcinnamic acid], under “substrate screening”, the “Activity against the FerC biosensor” value is “devoid of activity”.

Source of the values: article PMC5048394, “Development and substrate specificity screening of an in vivo biosensor for the detection of biomass derived aromatic chemical building blocks” (Chemical Communications (Cambridge, England), 2016).
